Common to all, as to type: biochemical
One assay concerns the target human CSNK1D (Homo sapiens (Human), UniProt P48730). Put plainly: CSNK1D Assay (ADP-Glo, 1 μM ATP). To be noted: read-out: CSNK1D IC50 [mol/l] (median). The procedure, abridged:
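Activity is read as ADP produced, by ADP-Glo luminescence after 1 h steps at 22 °C. The reaction uses 1 μM ATP, a biotinylated peptide and insect-cell-expressed GST–CSNK1D (about 0.5 ng/μL) in pH 7.5 HEPES buffer, with 15 min compound–enzyme preincubation.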

Assay [1] addresses T1, human CSNK1A1 (Homo sapiens (Human), UniProt P48729). Put plainly: CSNK1A1 Assay 2 (ADP-Glo, 1 μM ATP). To be noted: substrate biotin-Ahx-KRRRAL-pS-VASLPGL, read-out: CSNK1A1 Assay 2 IC50 [mol/l] (median). The procedure, abridged: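 Full-length human CSNK1A1 as an N-terminal GST fusion (baculovirus/insect cells) with biotinylated peptide substrate biotin-Ahx-KRRRAL-pS-VASLPGL and 1 μM ATP, in HEPES pH 7.5 buffer. Compounds were pre-incubated with enzyme (~0.0375 ng/μL) for 15 min at 22 °C. Generated ADP was read by ADP-Glo luminescence as the activity measure.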
Background: ADP-Glo turns the ADP formed in a reaction into a luminescent signal.

The target in assay [2] is wild-type Epidermal Growth Factor Receptor (EGFR) (Homo sapiens (Human), UniProt P00533). Nature of the assay: WT-EGFR Kinase Assay (TR-FRET, 2 mM ATP). For orientation: TR-FRET usually uses a lanthanide donor and a delayed reading to cut background.
Assay [3] deals with T1, human CSNK1A1. Put plainly: CSNK1A1 High ATP Assay (ADP-Glo, 1 mM ATP). Particulars: read-out: CSNK1A1 high ATP assay IC50 [mol/l] (median). In a few lines: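 Kinase activity taken as ADP generated, quantified by ADP-Glo luminescence after 1 h ATP depletion and 1 h detection at 22 °C. Enzyme is GST–full-length human CSNK1A1 (insect cell-expressed), pre-bound to compound for 15 min, with phosphopeptide substrate and 1 mM ATP.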

Setting [4] is: EGFR Wildtyp- 2 mM ATP IC50 [mol/l] (median).
Where [5] appears, read: read-out: EGFR Wildtyp- 2 mM ATP IC50 [mol/l] (median).

Molecules are shown by their SMILES. “And” between values parts separate entries of the source, which are not always exact repeats. Equal entries are not always repeated. Structures can show the parent of a compound that is named as a salt. Where two headings read alike, the source gives them in different places.

Sequence of wild-type Epidermal Growth Factor Receptor (EGFR) (P00533 669-1210): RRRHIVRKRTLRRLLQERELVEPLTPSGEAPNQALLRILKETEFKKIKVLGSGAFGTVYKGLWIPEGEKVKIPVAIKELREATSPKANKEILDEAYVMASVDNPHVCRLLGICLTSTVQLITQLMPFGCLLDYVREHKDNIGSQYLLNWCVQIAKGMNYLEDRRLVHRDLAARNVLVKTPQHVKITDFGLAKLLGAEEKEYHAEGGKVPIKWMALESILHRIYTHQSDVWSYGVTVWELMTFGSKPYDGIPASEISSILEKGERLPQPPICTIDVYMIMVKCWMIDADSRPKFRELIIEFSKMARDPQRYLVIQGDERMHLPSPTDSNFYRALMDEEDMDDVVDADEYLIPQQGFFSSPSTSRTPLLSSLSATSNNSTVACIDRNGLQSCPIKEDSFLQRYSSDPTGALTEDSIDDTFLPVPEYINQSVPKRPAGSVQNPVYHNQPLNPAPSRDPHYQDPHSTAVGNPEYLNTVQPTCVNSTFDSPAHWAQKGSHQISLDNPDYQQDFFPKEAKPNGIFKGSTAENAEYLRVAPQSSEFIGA
T1 sequence (P48729 whole entry, the tested form may be a part): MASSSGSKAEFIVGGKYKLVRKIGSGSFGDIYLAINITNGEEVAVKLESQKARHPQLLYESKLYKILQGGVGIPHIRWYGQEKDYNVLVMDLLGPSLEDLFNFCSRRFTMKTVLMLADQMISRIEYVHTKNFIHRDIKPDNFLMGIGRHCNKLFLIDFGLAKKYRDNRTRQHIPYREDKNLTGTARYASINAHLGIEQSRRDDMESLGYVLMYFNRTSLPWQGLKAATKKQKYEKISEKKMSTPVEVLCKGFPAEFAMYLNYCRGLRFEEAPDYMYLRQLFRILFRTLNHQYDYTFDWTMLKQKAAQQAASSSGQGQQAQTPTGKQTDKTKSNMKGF
Sequence of human CSNK1D (P48730 whole entry): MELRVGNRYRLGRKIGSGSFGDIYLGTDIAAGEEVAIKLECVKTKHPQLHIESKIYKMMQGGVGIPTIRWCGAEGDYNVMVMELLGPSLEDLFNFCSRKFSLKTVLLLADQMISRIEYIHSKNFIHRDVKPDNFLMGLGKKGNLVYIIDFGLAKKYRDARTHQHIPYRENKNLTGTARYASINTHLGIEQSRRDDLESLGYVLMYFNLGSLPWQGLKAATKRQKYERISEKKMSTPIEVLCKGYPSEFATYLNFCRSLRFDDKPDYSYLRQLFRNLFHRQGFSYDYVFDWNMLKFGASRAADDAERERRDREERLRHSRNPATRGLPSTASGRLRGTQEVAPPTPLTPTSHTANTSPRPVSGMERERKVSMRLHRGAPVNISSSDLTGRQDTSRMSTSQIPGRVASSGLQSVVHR

`CC1(C)Cc2[nH]c(-c3ccnc(NC(=O)C(CC(F)F)c4ccc(F)cc4)c3)c(Nc3cccc(F)n3)c2C(=O)N1` (racemic) [Example 128, 4,4-difluoro-2-(4-fluorophenyl)-N-(4-{3-[(6-fluoropyridin-2-yl)amino]-6,6-dimethyl-4-oxo-4,5,6,7-tetrahydro-1H-pyrrolo[3,2-c]pyridin-2-yl}pyridin-2-yl)butanamide (Racemate)]: the IC50 on human CSNK1D was 11.4 nM; at human CSNK1A1 [1], 7.16 nM; in assay [2] (setting [4]) it was above 20 µM; on human CSNK1A1 [3], 31.4 nM.
Turning to `Cc1ccccc1Nc1c(-c2ccnc(NC(=O)C(C)c3ccc(F)cc3)c2)[nH]c2c1C(=O)NC(C)(C)C2` (racemic) [Example 132, N-{4-[6,6-dimethyl-3-(2-methylanilino)-4-oxo-4,5,6,7-tetrahydro-1H-pyrrolo[3,2-c]pyridin-2-yl]pyridin-2-yl}-2-(4-fluorophenyl)propanamide (Racemate)], the IC50 on human CSNK1D was 32.9 nM; on human CSNK1A1 [1] it was 24.3 nM; in assay [2] (setting [4]), above 20 µM; on human CSNK1A1 [3], 915 nM.
Turning to `Cc1ccccc1Nc1c(-c2ccnc(NC(=O)C(CC(F)F)c3ccc(F)cc3)c2)[nH]c2c1C(=O)NC(C)(C)C2` (racemic) [Example 135, N-{4-[6,6-dimethyl-3-(2-methylanilino)-4-oxo-4,5,6,7-tetrahydro-1H-pyrrolo[3,2-c]pyridin-2-yl]pyridin-2-yl}-4,4-difluoro-2-(4-fluorophenyl)butanamide (Racemate)], the IC50 at human CSNK1D was 19.9 nM; on human CSNK1A1 [1], 25.8 nM; in assay [2] (setting [4]), above 20 µM; on human CSNK1A1 [3] it was 365 nM.
With `CC1(C)Cc2[nH]c(-c3ccnc(NC(=O)C(CNC(=O)OC(C)(C)C)c4ccc(F)cc4)c3)c(Nc3ccccc3)c2C(=O)N1` (racemic) [Example 138, tert-butyl [3-{[4-(3-anilino-6,6-dimethyl-4-oxo-4,5,6,7-tetrahydro-1H-pyrrolo[3,2-c]pyridin-2-yl)pyridin-2-yl]amino}-2-(4-fluorophenyl)-3-oxopropyl]carbamate (Racemate)], the IC50 on human CSNK1D is 22.4 nM; on human CSNK1A1 [1], 16.6 nM; in assay [2] (setting [4]), 11.1 µM; on human CSNK1A1 [3] it was 430 nM.
Turning to `CC1(C)Cc2[nH]c(-c3ccnc(NC(=O)C(CN)c4ccc(F)cc4)c3)c(Nc3ccccc3)c2C(=O)N1` (racemic) [Example 139, 3-amino-N-[4-(3-anilino-6,6-dimethyl-4-oxo-4,5,6,7-tetrahydro-1H-pyrrolo[3,2-c]pyridin-2-yl)pyridin-2-yl]-2-(4-fluorophenyl)propanamide-hydrogen chloride salt (Racemate)], the IC50 on human CSNK1D turned out to be 7.73 nM; at human CSNK1A1 [1], 3.21 nM; in assay [2] (setting [4]), 0.681 µM; on human CSNK1A1 [3], 41.4 nM.
For the compound `Cc1ccccc1Nc1c(-c2ccnc(NC(=O)C(CC(F)F)c3ccc(F)cc3)c2)[nH]c2c1C(=O)NC1(CCC1)C2` (racemic) [Example 143, 4,4-difluoro-2-(4-fluorophenyl)-N-{4-[3′-(2-methylanilino)-4′-oxo-1′,4′,5′,7′-tetrahydrospiro[cyclobutane-1,6′-pyrrolo[3,2-c]pyridin]-2′-yl]pyridin-2-yl}butanamide (Racemate)], the IC50 at human CSNK1D was 18.4 nM; at human CSNK1A1 [1], 16.7 nM; in assay [2] (setting [4]) it was above 20 µM; at human CSNK1A1 [3] it was 32 nM.
`O=C1NC2(CC2)Cc2[nH]c(-c3ccnc(NC(=O)C(CC(F)F)c4ccc(F)cc4)c3)c(Nc3ccccc3)c21` (racemic) [Example 147, N-[4-(3′-anilino-4′-oxo-1′,4′,5′,7′-tetrahydrospiro[cyclopropane-1,6′-pyrrolo[3,2-c]pyridin]-2′-yl)pyridin-2-yl]-4,4-difluoro-2-(4-fluorophenyl)butanamide (Racemate)]: the IC50 on human CSNK1D came out at 11.6 nM; at human CSNK1A1 [1] it was 6.2 nM; in assay [2] (setting [4]), 0.268 µM; on human CSNK1A1 [3], 19.2 nM.
Regarding `CC(C(=O)Nc1cc(-c2[nH]c3c(c2Nc2ccccc2)C(=O)N(C)C2(CCC2)C3)ccn1)c1ccc(F)cc1` (racemic) [Example 157, N-[4-(3′-anilino-5′-methyl-4′-oxo-1′,4′,5′,7′-tetrahydrospiro[cyclobutane-1,6′-pyrrolo[3,2-c]pyridin]-2′-yl)pyridin-2-yl]-2-(4-fluorophenyl)propanamide (Racemate)], the IC50 on human CSNK1D is 15.8 nM; at human CSNK1A1 [1], 8.76 nM; in assay [2] (setting [4]), above 20 µM; at human CSNK1A1 [3], 50.8 nM.
As for `CN1C(=O)c2c([nH]c(-c3ccnc(NC(=O)C(CC(F)F)c4ccc(F)cc4)c3)c2Nc2ccccc2)CC12CCC2` (racemic) [Example 160, N-[4-(3′-anilino-5′-methyl-4′-oxo-1′,4′,5′,7′-tetrahydrospiro[cyclobutane-1,6′-pyrrolo[3,2-c]pyridin]-2′-yl)pyridin-2-yl]-4,4-difluoro-2-(4-fluorophenyl)butanamide (Racemate)], the IC50 on human CSNK1D is 15.8 nM; on human CSNK1A1 [1] it was 13.3 nM; in assay [2] (setting [4]) it was above 20 µM; on human CSNK1A1 [3] it was 27.2 nM.
Consider `CC(C(=O)Nc1cc(-c2[nH]c3c(c2Nc2ccccc2)C(=O)NCC3)ccn1)c1ccc(F)cc1` (single isomer, unassigned) [Example 10, N-[4-(3-anilino-4-oxo-4,5,6,7-tetrahydro-1H-pyrrolo[3,2-c]pyridin-2-yl)pyridin-2-yl]-2-(4-fluorophenyl)propanamide], for which the IC50 was 14 nM on human CSNK1D, 4.61 nM at human CSNK1A1 [1], 12.4 µM in assay [2] (setting [4]) and 25.5 nM at human CSNK1A1 [3].
In the case of `CC(C(=O)Nc1cc(-c2[nH]c3c(c2Nc2ccccc2)C(=O)NCC3)ccn1)c1ccc(F)cc1` (single isomer, unassigned) [Example 11, N-[4-(3-anilino-4-oxo-4,5,6,7-tetrahydro-1H-pyrrolo[3,2-c]pyridin-2-yl)pyridin-2-yl]-2-(4-fluorophenyl)propanamide], the IC50 is 30.8 nM at human CSNK1D, 30.4 nM at human CSNK1A1 [1], 2.29 µM in assay [2] (setting [4]) and 3970 nM on human CSNK1A1 [3].
As to `CC(C(=O)Nc1cc(-c2[nH]c3c(c2Nc2ccccc2Cl)C(=O)NCC3)ccn1)c1ccc(F)cc1` (single isomer, unassigned) [Example 15, N-{4-[3-(2-chloroanilino)-4-oxo-4,5,6,7-tetrahydro-1H-pyrrolo[3,2-c]pyridin-2-yl]pyridin-2-yl}-2-(4-fluorophenyl)propanamide], the IC50 at human CSNK1D was 38.6 nM; at human CSNK1A1 [1], 42.5 nM; in assay [2] (setting [4]), above 20 µM; on human CSNK1A1 [3] it was 10700 nM and > 5710 nM.
Turning to `CC(C(=O)Nc1cc(-c2[nH]c3c(c2Nc2ccccc2Cl)C(=O)NCC3)ccn1)c1ccc(F)cc1` (single isomer, unassigned) [Example 16, N-{4-[3-(2-chloroanilino)-4-oxo-4,5,6,7-tetrahydro-1H-pyrrolo[3,2-c]pyridin-2-yl]pyridin-2-yl}-2-(4-fluorophenyl)propanamide], the IC50 was 8 nM at human CSNK1D, 2.57 nM on human CSNK1A1 [1], above 20 µM in assay [2] (setting [5]) and 102 nM at human CSNK1A1 [3].
Consider `CN1CCc2[nH]c(-c3ccnc(NC(=O)C(CO)c4ccc(F)cc4)c3)c(Nc3ccccc3)c2C1=O` (single isomer, unassigned) [Example 18, N-[4-(3-anilino-5-methyl-4-oxo-4,5,6,7-tetrahydro-1H-pyrrolo[3,2-c]pyridin-2-yl)pyridin-2-yl]-2-(4-fluorophenyl)-3-hydroxypropanamide], for which the IC50 on human CSNK1D was 44.7 nM; at human CSNK1A1 [1], 20.4 nM; in assay [2] (setting [4]), 14.9 µM; on human CSNK1A1 [3], 1790 nM.
As to `CN1CCc2[nH]c(-c3ccnc(NC(=O)C(CO)c4ccc(F)cc4)c3)c(Nc3ccccc3)c2C1=O` (single isomer, unassigned) [Example 19, N-[4-(3-anilino-5-methyl-4-oxo-4,5,6,7-tetrahydro-1H-pyrrolo[3,2-c]pyridin-2-yl)pyridin-2-yl]-2-(4-fluorophenyl)-3-hydroxypropanamide], the IC50 at human CSNK1D is 6.55 nM; at human CSNK1A1 [1], 1.7 nM; in assay [2] (setting [4]), > 20 µM (5×) and 16.1 µM; on human CSNK1A1 [3], 10.6 nM.
Consider `CCN1CCc2[nH]c(-c3ccnc(NC(=O)C(C)c4ccc(F)cc4)c3)c(Nc3ccccc3)c2C1=O` (single isomer, unassigned) [Example 25, N-[4-(3-anilino-5-ethyl-4-oxo-4,5,6,7-tetrahydro-1H-pyrrolo[3,2-c]pyridin-2-yl)pyridin-2-yl]-2-(4-fluorophenyl)propanamide], for which the IC50 at human CSNK1D is 88.6 nM; on human CSNK1A1 [1], 55.4 nM; in assay [2] (setting [4]), above 20 µM; at human CSNK1A1 [3], 12700 nM and > 20000 nM.
In the case of `CCN1CCc2[nH]c(-c3ccnc(NC(=O)C(C)c4ccc(F)cc4)c3)c(Nc3ccccc3)c2C1=O` (single isomer, unassigned) [Example 26, N-[4-(3-anilino-5-ethyl-4-oxo-4,5,6,7-tetrahydro-1H-pyrrolo[3,2-c]pyridin-2-yl)pyridin-2-yl]-2-(4-fluorophenyl)propanamide], the IC50 on human CSNK1D was 23.1 nM; at human CSNK1A1 [1], 4.05 nM; in assay [2] (setting [5]), above 20 µM; at human CSNK1A1 [3], 288 nM.

Values taken from patent US12227501B2, “3-amino-2-[2-(acylamino)pyridin-4-yl]-1,5,6,7-tetrahydro-4h-pyrrolo[3,2-c]pyridin-4-one as CSNK1 inhibitors” (Bayer Aktiengesellschaft, priority 2019, dated 2025).
